Results taken from the NIST ThermoML archive (doi:10.1016/j.jct.2004.08.006).
Numbers after ± are expanded uncertainties.

Settings: 298.15 K; 101.33 kPa; Crystal

Row | SMILES | mass density [kg/m3]
1 | NC(=O)c1cnccn1 [pyrazinecarboxamide] | 1100 ± 200
2 | O=C(O)c1cnccn1 [2-pyrazinecarboxylic acid] | 1200 ± 200
